The text below walks through data of ChEMBL document CHEMBL3751749, “Identification of new hit scaffolds by [sequence]-guided virtual screening” (Medchemcomm, 2015).

The structures appear in SMILES notation. The source made the active and inactive calls. The calls are words filed in the database; no cut-off is given here.

Test [1] addresses T1, Cyclin-dependent kinase 2 (Homo sapiens, UniProt P24941). Put plainly: Binding affinity to N-terminal His-tagged human CDK2 expressed in Escherichia coli BL21-AI by STD-NMR analysis.
Test [2] concerns the target T1, Cyclin-dependent kinase 2. Put plainly: Binding affinity to human CDK2 by isothermal titration calorimetric analysis. (In ITC the heat of successive injections is recorded.)
For test [3], the species on record is Homo sapiens. Put plainly: Inhibition of human PKA assessed as enzyme activity using PKA peptide as substrate at 5 uM incubated for 120 mins in presence of 33-P ATP by kinase phosphorylation assay. More on the design: scale not given: the % may be the effect or the level left.
In test [4] the target is CDK2/Cyclin A2 (Homo sapiens, UniProt P24941). Put plainly: Inhibition of recombinant full-length human Cdk2/cyclin A using histone H1 as substrate incubated for 120 mins in presence of 33-P ATP by kinase phosphorylation assay. It is filed as protein-complex assay.
In test [5] the target is T2, CDK2/Cyclin A2 (Homo sapiens) (UniProt P24941+P20248). Put plainly: Inhibition of recombinant full-length human Cdk2/cyclin A assessed as enzyme activity using histone H1 as substrate at 5 uM incubated for 120 mins in presence of 33-P ATP by kinase phosphorylation assay. Format: protein-complex assay. More on the design: scale not given: the % may be the effect or the level left.

Test [6] deals with T3, Cyclin-dependent kinase 2/cyclin E1 (Homo sapiens) (UniProt P24864+P24941). Put plainly: Inhibition of recombinant full-length human Cdk2/cyclin E assessed as enzyme activity using histone H1 as substrate at 5 uM incubated for 120 mins in presence of 33-P ATP by kinase phosphorylation assay. Format: protein-complex assay. Also noted: scale not given: the % may be the effect or the level left.

Test [7] deals with ALK tyrosine kinase receptor (Homo sapiens) (UniProt Q9UM73). Put plainly: Inhibition of human ALK assessed as enzyme activity using pEY as substrate at 5 uM incubated for 120 mins in presence of 33-P ATP by kinase phosphorylation assay. Also noted: scale not given: the % may be the effect or the level left.
In test [8] the target is T2, CDK2/Cyclin A2 (Homo sapiens). Put plainly: Inhibition of recombinant full-length human Cdk2/cyclin A assessed as enzyme activity using histone H1 as substrate at 100 uM incubated for 120 mins in presence of 33-P ATP by kinase phosphorylation assay. More on the design: scale not given: the % may be the effect or the level left. Format: protein-complex assay.
Test [9] addresses T3, Cyclin-dependent kinase 2/cyclin E1 (Homo sapiens). Put plainly: Inhibition of recombinant full-length human Cdk2/cyclin E assessed as enzyme activity using histone H1 as substrate at 100 uM incubated for 120 mins in presence of 33-P ATP by kinase phosphorylation assay. More on the design: scale not given: the % may be the effect or the level left. Format: protein-complex assay.

Test [10] is filed under the species Homo sapiens. Put plainly: Inhibition of human PKA assessed as enzyme activity using PKA peptide as substrate at 100 uM incubated for 120 mins in presence of 33-P ATP by kinase phosphorylation assay. Also noted: scale not given: the % may be the effect or the level left.

Sequence of ALK tyrosine kinase receptor (Homo sapiens) (Q9UM73 19-1620 limits assumed): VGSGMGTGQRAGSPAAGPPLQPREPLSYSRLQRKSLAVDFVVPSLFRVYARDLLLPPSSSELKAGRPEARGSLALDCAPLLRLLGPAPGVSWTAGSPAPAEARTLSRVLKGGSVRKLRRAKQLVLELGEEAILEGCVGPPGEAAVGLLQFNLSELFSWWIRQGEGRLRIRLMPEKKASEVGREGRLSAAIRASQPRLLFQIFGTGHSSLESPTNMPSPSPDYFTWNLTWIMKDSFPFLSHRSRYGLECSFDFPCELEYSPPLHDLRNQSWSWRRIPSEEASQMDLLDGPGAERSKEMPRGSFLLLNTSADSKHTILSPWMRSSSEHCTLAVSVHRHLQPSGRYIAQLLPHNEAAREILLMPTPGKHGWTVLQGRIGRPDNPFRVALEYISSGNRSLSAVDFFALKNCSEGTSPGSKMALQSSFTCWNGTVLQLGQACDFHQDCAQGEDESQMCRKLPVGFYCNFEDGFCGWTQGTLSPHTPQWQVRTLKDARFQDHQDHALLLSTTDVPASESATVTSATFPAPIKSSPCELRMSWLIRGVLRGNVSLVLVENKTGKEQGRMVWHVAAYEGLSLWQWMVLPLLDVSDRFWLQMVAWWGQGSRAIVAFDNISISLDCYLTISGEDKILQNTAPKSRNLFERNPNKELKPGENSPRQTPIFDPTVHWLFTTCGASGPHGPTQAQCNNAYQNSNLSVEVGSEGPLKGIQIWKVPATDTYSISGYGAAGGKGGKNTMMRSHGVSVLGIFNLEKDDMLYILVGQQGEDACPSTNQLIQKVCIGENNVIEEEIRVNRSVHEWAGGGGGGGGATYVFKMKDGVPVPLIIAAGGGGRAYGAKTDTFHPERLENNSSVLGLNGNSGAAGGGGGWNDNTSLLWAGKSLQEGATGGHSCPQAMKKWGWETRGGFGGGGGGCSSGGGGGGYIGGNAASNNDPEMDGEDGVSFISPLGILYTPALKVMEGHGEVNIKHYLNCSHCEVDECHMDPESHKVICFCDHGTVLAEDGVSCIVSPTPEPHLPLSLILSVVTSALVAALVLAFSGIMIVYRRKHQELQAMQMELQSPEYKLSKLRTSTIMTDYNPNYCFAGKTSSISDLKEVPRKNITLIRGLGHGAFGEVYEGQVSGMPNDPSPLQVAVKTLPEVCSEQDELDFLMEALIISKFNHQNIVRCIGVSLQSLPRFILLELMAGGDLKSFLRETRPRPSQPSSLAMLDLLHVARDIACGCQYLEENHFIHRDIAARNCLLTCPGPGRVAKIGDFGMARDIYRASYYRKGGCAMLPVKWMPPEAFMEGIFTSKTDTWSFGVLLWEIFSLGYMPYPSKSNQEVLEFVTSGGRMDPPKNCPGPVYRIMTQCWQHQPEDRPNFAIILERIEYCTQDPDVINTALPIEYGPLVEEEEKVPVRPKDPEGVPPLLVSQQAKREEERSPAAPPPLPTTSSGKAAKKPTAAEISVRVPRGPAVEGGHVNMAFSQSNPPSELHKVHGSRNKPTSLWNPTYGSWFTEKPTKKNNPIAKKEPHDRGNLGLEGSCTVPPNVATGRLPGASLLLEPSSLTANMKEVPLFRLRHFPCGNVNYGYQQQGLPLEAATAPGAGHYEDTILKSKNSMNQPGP

As a reminder, the Kd is the equilibrium constant for the complex coming apart. As for `CNc1ncnc2ccc([N+](=O)[O-])cc12`, the result in test [1] was Active. The compound further registered an equilibrium dissociation constant (Kd) in test [2] of 208 µM.
Regarding `Cc1ccc(Cn2cc(-n3c(-c4ccc(Cn5nc(C)cc5C)o4)n[nH]c3=S)cn2)cc1`, the outcome in [1] was inactive.
In general, IC50 refers to the midpoint of a concentration-inhibition curve. As to `Cc1nc2[nH]n(-c3ccccc3)c(=O)c2c2c1c(=O)oc1ccc(Br)cc12`, the Activity stood at 115% in [3], 35% in test [5], 95% in test [6] and 87% in [7]. Moreover, the concentration for half-maximal inhibition (IC50) in [4] turned out to be 2.6 µM.
In the case of `CC(C)=CCNc1ncnc2[nH]cnc12`, the outcome in test [1] was Active.
Same read-out and setting: with `O=S(=O)(c1cccc2cnccc12)N1CCCNCC1` the entry was “Active”.
For the compound `Cc1ccc(Cn2nccc2-n2c(-c3cc(C)n(C)n3)n[nH]c2=S)cc1`, the IC50 in test [4] stood at 1000 µM. The outcome in [1] was Active. Besides, the Activity in [8] is 69%; in test [9], 96%; in test [10] it was 99%.
Consider `Cc1ccc(Cn2cc(-n3c(-c4ccc(Cn5nc(C)c(Cl)c5C)o4)n[nH]c3=S)cn2)cc1`, for which the result in test [1] was inactive.
In the case of `c1ccc(CNc2ncnc3[nH]cnc23)cc1`, in [1], the outcome was Active.
On to `N=C(N)NCCNS(=O)(=O)c1cccc2cnccc12`, for which the outcome in test [1] was Active. The compound further displayed a Kd in [2] of 286 µM.
As to `c1ccc(CNc2ncnc3nc[nH]c23)cc1` [6-BENZYLAMINOPURINE], the equilibrium dissociation constant (Kd) in test [2] turned out to be 62 µM.
Regarding `Cc1ccc(Cn2cc(-n3c(-c4ccc(Cn5cccn5)cc4)n[nH]c3=S)cn2)cc1`, in test [1], the outcome was inactive.
Take `Nc1ncnc2c1ncn2[C@@H]1O[C@H](CO)[C@@H](O)[C@H]1O` [ADENOSINE]: the dissociation constant Kd in [2] was found to be 184 µM.
Still for that read-out and setting: as for `CC(C)=CCNc1ncnc2nc[nH]c12`, the figure is 35 µM.
For `Cc1ccc(Cn2cc(-n3c(-c4ccc(Cn5cc(Cl)cn5)cc4)n[nH]c3=S)cn2)cc1`, the outcome in test [1] was inactive.
